Assay results from patent US20020055528A1, “Artemisinin analogs having antimalarial, antiproliferative, and antitumor activities and chemoselective methods of making the same” (priority 1999, published 2002).

Assays:
Assay type in all cases: cell-based
[1] = test system: SNB-75; assay: NCI 60 cell line screen (SRB), CNS Cancer
[2] = test system: SR; assay: NCI 60 cell line screen (SRB), Leukemia; conditions: Table IV (LC50, PG=−50)
[3] = test system: NCI/ADR-RES; assay: NCI 60 cell line screen (SRB), Breast Cancer
[4] = test system: HS 578T; assay: NCI 60 cell line screen (SRB), Breast Cancer
[5] = test system: OVCAR-4; assay: NCI 60 cell line screen (SRB), Ovarian Cancer
[6] = test system: HCT-15; assay: NCI 60 cell line screen (SRB), Colon Cancer
[7] = test system: 786-0; assay: NCI 60 cell line screen (SRB), Renal Cancer
[8] = test system: SNB-19; assay: NCI 60 cell line screen (SRB), CNS Cancer
[9] = test system: SN12C; assay: NCI 60 cell line screen (SRB), Renal Cancer
[10] = test system: SK-OV-3; assay: NCI 60 cell line screen (SRB), Ovarian Cancer
[11] = test system: OVCAR-3; assay: NCI 60 cell line screen (SRB), Ovarian Cancer; conditions: PG=0
[12] = test system: SF-268; assay: NCI 60 cell line screen (SRB), CNS Cancer
[13] = test system: MCF7; assay: NCI 60 cell line screen (SRB), Breast Cancer
[14] = test system: TK-10; assay: NCI 60 cell line screen (SRB), Renal Cancer
[15] = test system: MB231/ATCC (second line of the wrapped label, with values of its own); assay: NCI 60 cell line screen (SRB), Breast Cancer
[16] = test system: MALME-3M; assay: NCI 60 cell line screen (SRB), Melanoma
[17] = test system: MDA-MB-435; assay: NCI 60 cell line screen (SRB), Breast Cancer
[18] = test system: KM12; assay: NCI 60 cell line screen (SRB), Colon Cancer
[19] = test system: OVCAR-8; assay: NCI 60 cell line screen (SRB), Ovarian Cancer
[20] = test system: SK-MEL2; assay: NCI 60 cell line screen (SRB), Melanoma
[21] = test system: ACHN; assay: NCI 60 cell line screen (SRB), Renal Cancer
[22] = test system: SW-620; assay: NCI 60 cell line screen (SRB), Colon Cancer
[23] = test system: HCC-2998; assay: NCI 60 cell line screen (SRB), Colon Cancer
[24] = test system: NCI-H23; assay: NCI 60 cell line screen (SRB), Non-Small Cell Lung Cancer
[25] = test system: SF-295; assay: NCI 60 cell line screen (SRB), CNS Cancer
[26] = test system: IGROVI; assay: NCI 60 cell line screen (SRB), Ovarian Cancer
[27] = test system: EKVX; assay: NCI 60 cell line screen (SRB), Non-Small Cell Lung Cancer

Q: What does the source list for `CC1=C(C=Cc2cccc(C=CC3=C(C)C4CCC(C)C5CCC6(C)OOC45C(O3)O6)c2)OC2OC3(C)CCC4C(C)CCC1C24OO3` (centres unmarked) [VII-h]?
A: Log10TGI ([1]; PG=0): −5.08 log10M; Log10 GI50 (PG=+50) or LC50 (PG=−50) ([1]; PG=+50): −6.99 log10M; Log10 GI50 (PG=+50) or LC50 (PG=−50) ([1]; Table IV (LC50, PG=−50)): >−4.00 log10M; Log10GI50 [2]: >−4.00 log10M; Log10TGI ([3]; PG=0): −4.40 log10M; Log10GI50 ([3]; PG=+50): −5.76 log10M; Log10GI50 ([3]; Table IV (LC50, PG=−50)): >−4.00 log10M; Log10TGI ([4]; PG=0): >−4.00 log10M; Log10GI50 ([4]; PG=+50): −7.41 log10M; Log10GI50 ([4]; Table IV (LC50, PG=−50)): >−4.00 log10M; Log10GI50 ([5]; OVCAR-4, PG=+50): −7.51 log10M; Log10TGI ([5]; OVCAR−4, PG=0): −6.31 log10M; Log10GI50 ([5]; Table IV (LC50, PG=−50), OVCAR−4): >−4.00 log10M; Log10TGI ([6]; PG=0): >−4.00 log10M; log10 GI50 (PG=+50) or LC50 (PG=−50), per row condition ([6]; PG=+50): −7.39 log10M; log10 GI50 (PG=+50) or LC50 (PG=−50), per row condition ([6]; Table IV (LC50, PG=−50)): >−4.00 log10M; Log10TGI ([7]; PG=0): >−4.00 log10M; Log10GI50 ([7]; PG=+50): −7.02 log10M; Log10GI50 ([7]; Table IV (LC50, PG=−50)): >−4.00 log10M; Log10TGI ([8]; PG=0): >−4.00 log10M; Log10GI50 or Log10LC50 (see condition) ([8]; PG=+50): −7.09 log10M; Log10GI50 or Log10LC50 (see condition) ([8]; Table IV (LC50, PG=−50)): >−4.00 log10M; Log10TGI ([9]; SN12C, PG=0): >−4.00 log10M; Log10GI50 ([9]; SNI2C, PG=+50): −7.31 log10M; Log10GI50 ([9]; Table IV (LC50, PG=−50), SN12C): −4.00 log10M; Log10TGI ([10]; PG=0): >−4.00 log10M; Log10GI50 ([10]; Table IV (LC50, PG=−50)): >−4.00 log10M; Log10TGI [11]: >−4.00 log10M; Log10TGI ([12]; PG=0): >−4.00 log10M; Log10GI50 ([12]; PG=+50): −6.86 log10M; Log10TGI ([13]; PG=0): −4.31 log10M; Log10GI50 ([13]; PG=+50): −7.33 log10M; Log10GI50 ([13]; Table IV (LC50, PG=−50)): >−4.00 log10M; Log10TGI ([14]; PG=0): >−4.00 log10M; Log10GI50 ([14]; PG=+50): −7.22 log10M; Log10GI50 ([14]; Table IV (LC50, PG=−50)): >−4.00 log10M; Log10TGI ([15]; PG=0): −5.72 log10M; Log10GI50 ([15]; PG=+50): −7.31 log10M; Log10GI50 ([15]; Table IV (LC50, PG=−50)): >−4.00 log10M; Log10TGI ([16]; PG=0): −4.17 log10M; Log10GI50 ([16]; PG=+50): −6.94 log10M; Log10GI50 ([16]; Table IV (LC50, PG=−50)): >−4.00 log10M; Log10TGI ([17]; MDA-MB-435, PG=0): >−4.00 log10M; Log10GI50 ([17]; MDA-MB−435, PG=+50): −7.29 log10M; Log10GI50 ([17]; Table IV (LC50, PG=−50), MDA-MB-435): >−4.00 log10M; Log10TGI ([18]; PG=0): >−4.00 log10M; Log10GI50 ([18]; PG=+50): −7.81 log10M; Log10GI50 ([18]; Table IV (LC50, PG=−50)): >−4.00 log10M; Log10TGI ([19]; PG=0): >−4.00 log10M; Log10GI50 ([19]; PG=+50): −7.33 log10M; Log10GI50 ([19]; Table IV (LC50, PG=−50)): >−4.00 log10M; Log10TGI ([20]; PG=0): −5.34 log10M; Log10 GI50 or LC50 (per conditions) ([20]; PG=+50): −6.87 log10M; Log10 GI50 or LC50 (per conditions) ([20]; Table IV (LC50, PG=−50)): >−4.00 log10M; Log10TGI ([21]; PG=0): >−4.00 log10M; Log10 GI50 or LC50 (see conditions) ([21]; PG=+50): −6.86 log10M; Log10 GI50 or LC50 (see conditions) ([21]; Table IV (LC50, PG=−50)): >−4.00 log10M; Log10TGI ([22]; PG=0): >−4.00 log10M; Log10GI50 ([22]; PG=+50): −7.59 log10M; Log10TGI ([23]; PG=0): >−4.00 log10M; Log10GI50 ([23]; PG=+50): −6.57 log10M; Log10TGI ([24]; PG=0): >−4.00 log10M; log10 GI50 or LC50 (see conditions) ([24]; PG=+50): −6.35 log10M; log10 GI50 or LC50 (see conditions) ([24]; Table IV (LC50, PG=−50)): >−4.00 log10M; Log10TGI ([25]; PG=0): >−4.00 log10M; Log10GI50 ([25]; PG=+50): −6.39 log10M; Log10TGI ([26]; PG=0): −4.20 log10M; Log10GI50 ([26]; Table IV (LC50, PG=−50)): >−4.00 log10M; Log10TGI ([27]; PG=0): >−4.00 log10M; Log10GI50 ([27]; PG=+50): −7.42 log10M; Log10GI50 ([27]; Table IV (LC50, PG=−50)): >−4.00 log10M
